Literature values, collected in patent publication US20180161366A1, “METHODS OF OBTAINING MONONUCLEAR BLOOD CELLS AND USES THEREOF” (Biokine Therapeutics Ltd., priority 2015, published 2018).

Details: from DiPersio Blood 2008; cited from earlier work

For `c1cc(CN2CCCNCCNCCCNCC2)ccc1CN1CCCNCCNCCCNCC1` [AMD3100], the “B cells (CD19), Median (range)” value is given as 1.0 (0.2-2.4) × 10^8/Kg, the “Cytotoxic T cells (CD3+CD8+), Median (range)” value is given as 1.3 (0.4-3.4) × 10^8/Kg and the “HSPC (CD34+), Median (range)” value is given as 2.9 (1.2-6.3) × 10^6/Kg. For the same molecule, the “NK cells (CD3−CD56+), Median (range)” value was 0.3 (0.1-1.0) × 10^8/Kg, the “T cells (CD3+), Median (range)” value was 4.6 (1.5-7.8) × 10^8/Kg and the “T helper cells (CD3+CD4+), Median (range)” value was 3.2 (1-5.7) × 10^8/Kg.

B1: G-CSF: mobilization agent (protein, UniProt P09919 31-207, looked up)
Granulocyte …: TPLGPASSLPQSFLLKCLEQVRKIQGDGAALQEKLVSECATYKLCHPEELVLLGHSLGIPWAPLSSCPSQALQLAGCLSQLHSGLFLYQGLLQALEGISPELGPTLDTLQLDVADFATTIWQQMEELGMAPALQPTQGAMPAFASAFQRRAGGVLVASHLQSFLEVSYRVLRHLAQP
In the case of B1, the “Cytotoxic T cells (CD3+CD8+), Median (range)” value is given as 0.4 (0.4-3.4) × 10^8/Kg, the “HSPC (CD34+), Median (range)” value is given as 4.2 (2.5-18) × 10^6/Kg and the “NK cells (CD3−CD56+), Median (range)” value is given as 0.2 (0.2-0.5) × 10^8/Kg. The “T cells (CD3+), Median (range)” value was 1.3 (1.2-6.8) × 10^8/Kg and the “T helper cells (CD3+CD4+), Median (range)” value was 1.1 (0.7-3.2) × 10^8/Kg.
